What all share (format): in vivo
Test [1] has as its system EPHHL Euphorbia heterophylla. The experiment in a line: Post-emergence crop and weed test (Example 15). Particulars: 360 h, after 15 days, read-out: Percentage damage EPHHL. The method, boiled down:
(§1)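 Scoring: percent damage at 15 days after treatment, where 100 means total damage and 0 no damage. Treatment was a foliar spray of 14-day-old potted plants, using active ingredient diluted from a 5% acetone-based emulsifiable stock into water containing 0.2% X-77 adjuvant.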

Test [2] deals with XANST Xanthium strumarium. Kind of test: Post-emergence crop and weed test (Example 15). The following applies: 360 h, after 15 days, read-out: Percentage damage XANST. In a few lines: as §1
The subject of the next test is GALAP Galium aparine. Kind of test: Post-emergence crop and weed test (Example 15). The following applies: 360 h, 30 g/ha, after 15 days, read-out: Percentage damage GALAP. In a few lines:
as §1

Test [3] concerns IPOHE Ipomoea hederacea. Kind of test: Post-emergence crop and weed test (Example 15). Particulars: 360 h, 30 g/ha, after 15 days, read-out: Percentage damage IPOHE. The method, boiled down:
as §1

In test [4] the test system is AMARE Amaranthus retroflexus. Kind of test: Post-emergence crop and weed test (Example 15). Particulars: 360 h, after 15 days, read-out: Percentage damage AMARE. In a few lines: as §1
The subject of test [5] is GLXMA Soybean. Kind of test: Post-emergence crop and weed test (Example 15). Particulars: Glycine max, 360 h, after 15 days, read-out: Percentage damage GLXMA. The method, boiled down: as §1
The subject of test [6] is SIDSP Sida spinosa. The experiment in a line: Post-emergence crop and weed test (Example 15). The following applies: 360 h, after 15 days, read-out: Percentage damage SIDSP. The method, boiled down: as §1
For test [7], the system named is SINAR Sinapis arvensis. The experiment in a line: Post-emergence crop and weed test (Example 15). Particulars: Mutarda arvensis, 360 h, after 15 days, read-out: Percentage damage SINAR. The method, boiled down: as §1
Test [8] concerns POLCO Polygonum convolvulus. The experiment in a line: Post-emergence crop and weed test (Example 15). Particulars: Fallopia convolvulus, 360 h, after 15 days, read-out: Percentage damage POLCO. The method, boiled down:
as §1

The subject of another test is VERPE Veronica persica. The experiment in a line: Post-emergence crop and weed test (Example 15). Particulars: 360 h, after 15 days, read-out: Percentage damage VERPE. The method, boiled down: as §1
Test [9] has as its system ABUTH Abutilon theophrasti. Kind of test: Post-emergence crop and weed test (Example 15). Particulars: 360 h, after 15 days, read-out: Percentage damage ABUTH. In a few lines:
as §1

The subject of test [10] is KCHSC Kochia scoparia. Kind of test: Post-emergence crop and weed test (Example 15). Particulars: Bassia scoparia, 360 h, after 15 days, read-out: Percentage damage KCHSC. In a few lines: as §1
Test [11] concerns CHEAL Chenopodium album. The experiment in a line: Post-emergence crop and weed test (Example 15). The following applies: 360 h, after 15 days, read-out: Percentage damage CHEAL. The method, boiled down: as §1
Test [12] has as its system Alopecurus myosuroides (ALOMY). Kind of test: Pre-emergence biological efficacy (Example 13). The following applies: Alopecurus myosuroides, 312 h; pre-emergence, 1,000 g/ha, after 13 days; read-out: Percentage damage ALOMY. In a few lines:
(§2)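 Seeds sown in standard soil in pots, kept one day in a glasshouse (24/16 °C day/night, 14 h light, 65% humidity), then sprayed with aqueous solution from acetone/water (50:50) with 0.5% Tween 20 at 250 or 1000 g/ha. Damage scored after 13 days (0 = none, 100 = total).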

For test [13], the system named is Amaranthus retroflexus (AMARE). The experiment in a line: Pre-emergence biological efficacy (Example 13). The following applies: Amaranthus retroflexus, 312 h; pre-emergence, 1,000 g/ha, after 13 days; read-out: Percentage damage AMARE. In a few lines:
as §2

Test [14] concerns Ipomea hederaceae (IPOHE). Kind of test: Pre-emergence biological efficacy (Example 13). The following applies: Ipomoea hederacea, 312 h; pre-emergence, 1,000 g/ha, after 13 days; read-out: Percentage damage IPOHE. The method, boiled down: as §2
Test [15] concerns Solanum nigrum (SOLNI). Kind of test: Pre-emergence biological efficacy (Example 13). Particulars: Solanum nigrum, 312 h; pre-emergence, 1,000 g/ha, after 13 days; read-out: Percentage damage SOLNI. The method, boiled down:
as §2

Test [16] deals with Echinochloa crus-galli (ECHCG). Kind of test: Pre-emergence biological efficacy (Example 13). Particulars: Echinochloa crus-galli, 312 h; pre-emergence, 1,000 g/ha, after 13 days; read-out: Percentage damage ECHCG. In a few lines: as §2
The subject of test [17] is Setaria faberi (SETFA). The experiment in a line: Pre-emergence biological efficacy (Example 13). The following applies: Setaria faberi, 312 h; pre-emergence, 1,000 g/ha, after 13 days; read-out: Percentage damage SETFA. In a few lines:
as §2

The test system of test [18] is Alopecurus myosuroides (ALOMY). Kind of test: Post-emergence biological efficacy (Example 14). The following applies: Alopecurus myosuroides, 312 h; post-emergence, 1,000 g/ha, after 13 days; read-out: Percentage damage ALOMY. The method, boiled down: (§3)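 Pot-grown seedlings raised 8 days in a glasshouse (24/16 °C day/night, 14 h light, 65% humidity) were sprayed post-emergence with compound in acetone/water (50:50) plus 0.5% Tween 20 at 250 or 1000 g/ha. Damage was scored visually after 13 days on a 0–100 scale (100 = total kill).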

Test [19] concerns Amaranthus retroflexus (AMARE). Kind of test: Post-emergence biological efficacy (Example 14). The following applies: Amaranthus retroflexus, 312 h; post-emergence, 1,000 g/ha, after 13 days; read-out: Percentage damage AMARE. In a few lines:
as §3

Test [20] concerns Ipomea hederaceae (IPOHE). Kind of test: Post-emergence biological efficacy (Example 14). Particulars: Ipomoea hederacea, 312 h; post-emergence, 1,000 g/ha, after 13 days; read-out: Percentage damage IPOHE. In a few lines: as §3
Test [21] deals with Solanum nigrum (SOLNI). The experiment in a line: Post-emergence biological efficacy (Example 14). The following applies: Solanum nigrum, 312 h; post-emergence, 1,000 g/ha, after 13 days; read-out: Percentage damage SOLNI. In a few lines:
as §3

In test [22] the test system is Echinochloa crus-galli (ECHCG). The experiment in a line: Post-emergence biological efficacy (Example 14). The following applies: Echinochloa crus-galli, 312 h; post-emergence, 1,000 g/ha, after 13 days; read-out: Percentage damage ECHCG. The method, boiled down:
as §3

For test [23], the system named is Setaria faberi (SETFA). Kind of test: Post-emergence biological efficacy (Example 14). Particulars: Setaria faberi, 312 h; post-emergence, 1,000 g/ha, after 13 days; read-out: Percentage damage SETFA. In a few lines: as §3
Test [24] has as its system EPHHL Euphorbia heterophylla. The experiment in a line: Pre-emergence crop and weed test (Example 16). The following applies: 250 g/ha, after 20 days. The procedure:
(§4) Seeds of crop and representative weed species were sown in standard soil in pots. After cultivation for 1 day under controlled conditions in a glasshouse (at 22/16° C., day/night; 16 hours light; 65% humidity), the plants were sprayed. The spray solution was prepared by dissolving the technical active ingredient in acetone containing 10.56 wt % Emulsogen EL, 42.22 wt % N-methylpyrrolidone and 2.22 wt % DPG-monoethyl ether to give a 5% stock solution. This was then diluted with water containing 0.2% (v/v) of the adjuvant X-77 to give the desired treatment concentration.
(§5) The test plants were then grown on under controlled conditions in a glasshouse (at 22/16° C., day/night; 16 hours light; 65% humidity) and watered twice daily. After 20 days the test was evaluated (100=total damage to plant; 0=no damage to plant).
(§6) Species as for Post-Emergence Test.

Test [25] deals with XANST Xanthium strumarium. Kind of test: Pre-emergence crop and weed test (Example 16). The following applies: 250 g/ha, after 20 days. On the procedure: as §4, §5, §6
For test [26], the system named is IPOHE Ipomoea hederacea. The experiment in a line: Pre-emergence crop and weed test (Example 16). Particulars: 250 g/ha, after 20 days. On the procedure: as §4, §5, §6
Test [27] concerns AMARE Amaranthus retroflexus. The experiment in a line: Pre-emergence crop and weed test (Example 16). Particulars: 250 g/ha, after 20 days. The procedure:
as §4, §5, §6

The test system of test [28] is GLXMA Soybean. The experiment in a line: Pre-emergence crop and weed test (Example 16). Particulars: 250 g/ha, after 20 days. The procedure:
as §4, §5, §6

The test system of test [29] is SIDSP Sida spinosa. The experiment in a line: Pre-emergence crop and weed test (Example 16). The following applies: 250 g/ha, after 20 days. On the procedure: as §4, §5, §6
Test [30] has as its system SINAR Sinapis arvensis. The experiment in a line: Pre-emergence crop and weed test (Example 16). Particulars: 250 g/ha, after 20 days. On the procedure: as §4, §5, §6
For test [31], the system named is POLCO Polygonum convolvulus. Kind of test: Pre-emergence crop and weed test (Example 16). The following applies: 250 g/ha, after 20 days. On the procedure:
as §4, §5, §6

Test [32] has as its system ABUTH Abutilon theophrasti. Kind of test: Pre-emergence crop and weed test (Example 16). Particulars: 250 g/ha, after 20 days. The procedure:
as §4, §5, §6

In test [33] the test system is KCHSC Kochia scoparia. Kind of test: Pre-emergence crop and weed test (Example 16). The following applies: 250 g/ha, after 20 days. The procedure:
as §4, §5, §6

The subject of test [34] is CHEAL Chenopodium album. The experiment in a line: Pre-emergence crop and weed test (Example 16). The following applies: 250 g/ha, after 20 days. On the procedure:
as §4, §5, §6

Turning to `C=Cc1c(NCc2ccco2)nc(-c2ccc(Cl)cc2)nc1C(=O)OC` [Compound 7, 2-(4-Chlorophenyl)-5-ethenyl-4-(furan-2-ylmethylamino)-6-methoxycarbonyl-pyrimi-dine], the pest or weed control at 30 g/ha in [1] (30 g/ha) turned out to be 0%; in test [2] (30 g/ha), 50%; with GALAP Galium aparine, 60%; in the test with IPOHE Ipomoea hederacea [3], 70%; in test [4] (30 g/ha), 50%; in the test with SIDSP Sida spinosa [6] (30 g/ha) it was 0%. Also, the pest or weed control at 30 g/ha in the test with SINAR Sinapis arvensis [7] (30 g/ha) was found to be 60%; in test [8] (30 g/ha), 40%; in the test with VERPE Veronica persica (30 g/ha), 80%; in test [9] (30 g/ha), 70%; with KCHSC Kochia scoparia [10] (30 g/ha), 40%; in the test on CHEAL Chenopodium album [11] (30 g/ha), 20%. For the same compound, the plant injury at 30 g/ha in the test on GLXMA Soybean [5] (30 g/ha) was 0%. Also, the pest or weed control at 1000 g/ha in test [12] was 50%; in [13], 100%; in [14], 40%; with Solanum nigrum (SOLNI) [15], 20%; in [16] it was 20%; with Setaria faberi (SETFA) [17], 10%. Also, the pest or weed control at 1000 g/ha is 30% in test [18]; 100% in [19]; 80% in test [20]; 90% with Solanum nigrum (SOLNI) [21]; 40% in test [22]; 0% in the test with Setaria faberi (SETFA) [23].

On to `C=Cc1c(N)nc(-c2ccc(Cl)c(OC)c2F)nc1C(=O)O` [Compound 11, 4-amino-2-(4-chloro-2-fluoro-3-methoxyphenyl) -5-ethenylpyrimidine-6-carboxylic acid], for which the pest or weed control at 8 g/ha is 90% in [1] (8 g/ha); 90% in test [2] (8 g/ha); 60% in [4] (8 g/ha); 80% in the test with SIDSP Sida spinosa [6] (8 g/ha); 0% in the test on SINAR Sinapis arvensis [7] (8 g/ha); 70% in test [8] (8 g/ha). Moreover, the pest or weed control at 8 g/ha in the test with VERPE Veronica persica (8 g/ha) came out at 80%; in test [9] (8 g/ha), 90%; in the test with KCHSC Kochia scoparia [10] (8 g/ha), 10%; in the test with CHEAL Chenopodium album [11] (8 g/ha) it was 80%. In addition, the plant injury at 8 g/ha in the test on GLXMA Soybean [5] (8 g/ha) was 0%. Moreover, the “Percentage damage EPHHL” value in test [24] was found to be 100%. Also, in test [25], the “Percentage damage XANST” value was determined as 70%. Further, the “Percentage damage IPOHE” value in the test on IPOHE Ipomoea hederacea [26] was 100%. Besides, the “Percentage damage AMARE” value in test [27] is reported as 100%. Further, in the test on GLXMA Soybean [28], the “Percentage damage GLXMA” value was 0%. For the same compound, in the test on SIDSP Sida spinosa [29], the “Percentage damage SIDSP” value was 100%. Moreover, in the test on SINAR Sinapis arvensis [30], the “Percentage damage SINAR” value is 70%. Moreover, the “Percentage damage POLCO” value in [31] is 20%. Further, the “Percentage damage ABUTH” value in test [32] is 100%. The “Percentage damage KCHSC” value in the test on KCHSC Kochia scoparia [33] is given as 100%. Further, the “Percentage damage CHEAL” value in the test on CHEAL Chenopodium album [34] stood at 100%.

(Values after patent publication US20120115724A1, “METHOD OF CONTROLLING UNDESIRED VEGETATION” (SYNGENTA CROP PROTECTION LLC, priority 2009, published 2012).)
